Assay results reported in patent publication US4083947A, “Organ visualization” (The Radiochemical Centre Limited, priority 1975, dated 1978).
Where two headings read alike, the source gives them in different places.

How the values were obtained:
[1] = Tissue distribution of selenium-75-labelled sterols in rats, sixth day post-injection; format: in vivo, rats of the C.F.Y. strain; conditions: tail vein, dose: 1, 7: 40 μCi, 6: 50 μCi, 3: 30 μCi, 4: 1.5 μCi, 5: 10 μCi, 8: 6.3 μCi; for % dose kg./g. in Ovaries: female rats; for % dose kg./g. in Adrenals / % dose kg./g. in Blood / % dose kg./g. in Kidneys / % dose kg./g. in Liver / % dose kg./g. in Muscle: male and female rats; for % dose kg./g. in Testes: male rats; for Concentration Ratio; Adrenals: Kidneys / Concentration Ratio; Adrenals: Liver / Concentration Ratio; Adrenals: Muscle / Concentration Ratio; Adrenals: Ovaries / Concentration Ratio; Adrenals: Testes / Concentration Ratio; Adrenals: Blood: rats; for Concentration Ratio; Adrenals: Blood: 8640 min
Method: The tissue distribution and target to non-target concentration ratios for seven compounds were studied in male and female rats (150-180 g) of the C.F.Y. strain. Each compound (in a volume of 0.3ml) was injected via the tail vein into two male and two female rats. The animals were then housed in separate metabolism cages prior to sacrifice and dissecting on the sixth day post-injection.

[2] = cited from earlier work
[3] = cited from earlier work; remark: listed apart in the source
[4] = Adrenal scanning/visualization in patients, comparison of 75Se compound with 19-iodocholesterol-131I; format: in vivo, humans
Method: (§1) Two patients with Cushing Syndrome were injected intravenously with 500μCi of 6β-methylselenomethyl-19-norcholest-5(10)-en-3β-ol-^75 Se formulated in normal saline stabilized with polysorbate. Repeated gamma camera scans and whole body-, urine- and blood measurements were made during a period of two weeks post injection. In one patient a maximum uptake of 17μCi in the left adrenal region was measured, the removed adrenal cortex adenoma, weight 66 g, containing 15μCi of ^75 Se.
Furthermore, the ^75 Se compound allowed scans to be taken at an earlier point of time after injection than was the case with 19-iodocholesterol-^131 I (2-3 days in contrast to 6-10 days p.i.).

[5] = Tissue distribution in a female dog, 6th day post-injection; format: in vivo
Method: 250μCi of 6β-methylselenomethyl-19-norcholest-5(10)-en-[…]-^75 Se was intravenously injected into a female dog (13.7 kg). The dog was housed in a metabolism cage for the daily collection of urine and faeces. On the 6th day post-injection the animal was sacrificed (i.v. sodium pento-barbitone)and tissue and organ samples collected. The weighed samples were then assayed for radioactive content.
The resulting tissue distribution (expressed in terms of % dose kg/g) is tabulated below: […]

[6] = Adrenal uptake of 75Se in patients with Cushing Syndrome (gamma camera scans); format: in vivo, humans
Method: as §1

[7] = 250μCi intravenous, female dog, 6th day
[8] = 250μCi intravenous, female dog, daily collection to 6th day

SMILES: CCCC[75Se]C[C@@H]1C[C@@H]2[C@H](CC[C@]3(C)[C@@H]([C@H](C)CCCC(C)C)CC[C@@H]23)C2=C1C[C@@H](O)CC2 [Example 3, 6β-butylselenomethyl-19-norcholest-5(10)-en-3β-ol-^75 Se]
- % dose kg./g. in Ovaries [1]: 2.553 % dose kg./g.
- % dose kg./g. in Adrenals [1]: 7.563 % dose kg./g.
- % dose kg./g. in Blood [1]: 0.009 % dose kg./g.
- % dose kg./g. in Kidneys [1]: 0.052 % dose kg./g.
- % dose kg./g. in Liver [1]: 0.096 % dose kg./g.
- % dose kg./g. in Muscle [1]: 0.012 % dose kg./g.
- % dose kg./g. in Testes [1]: 0.023 % dose kg./g.
- Concentration Ratio; Adrenals: Kidneys [1]: 144.8
- Concentration Ratio; Adrenals: Liver [1]: 79.0
- Concentration Ratio; Adrenals: Muscle [1]: 809.6
- Concentration Ratio; Adrenals: Ovaries [1]: 4.0
- Concentration Ratio; Adrenals: Testes [1]: 268.3
- Concentration Ratio; Adrenals: Blood [1]: 581.9

SMILES: CC(C)CCC[C@@H](C)[C@H]1CC[C@H]2[C@@H]3C[C@@H](C[75Se]c4ccccc4)C4=C(CC[C@H](O)C4)[C@H]3CC[C@]12C [Example 8, 6β-phenylselenomethyl-19-norcholest-5(10)-en-3β-ol-^75 Se]
- % dose kg./g. in Ovaries [1]: 2.578 % dose kg./g.
- % dose kg./g. in Adrenals [1]: 5.934 % dose kg./g.
- % dose kg./g. in Blood [1]: 0.021 % dose kg./g.
- % dose kg./g. in Kidneys [1]: 0.062 % dose kg./g.
- % dose kg./g. in Liver [1]: 0.144 % dose kg./g.
- % dose kg./g. in Muscle [1]: 0.015 % dose kg./g.
- % dose kg./g. in Testes [1]: 0.039 % dose kg./g.
- Concentration Ratio; Adrenals: Kidneys [1]: 109.1
- Concentration Ratio; Adrenals: Liver [1]: 40.0
- Concentration Ratio; Adrenals: Muscle [1]: 418.9
- Concentration Ratio; Adrenals: Ovaries [1]: 3.62
- Concentration Ratio; Adrenals: Testes [1]: 171.2
- Concentration Ratio; Adrenals: Blood [1]: 285.8

SMILES: C[75Se]C[C@]12CC[C@H](O)CC1=CC[C@@H]1[C@@H]2CC[C@]2(C)[C@@H]([C@H](C)CCCC(C)C)CC[C@@H]12 [19-methylselenocholesterol]
- concentration in / uptake into human adrenal glands [2]: poor
- concentration in the adrenal cortex ([2]; human): appears not to be concentrated in the adrenal cortex
- uptake into pheochromocytomas of human adrenal medullary tissue ([2]; some instances): some instances have been cited of its uptake into pheochromocytomas
- concentration in rat adrenal tissue [3]: concentrated strongly in rat adrenal tissue

SMILES: CC(C)CCC[C@@H](C)[C@H]1CC[C@H]2[C@@H]3C[C@@H](C[75Se]Cc4ccccc4)C4=C(CC[C@H](O)C4)[C@H]3CC[C@]12C [Example 5, 6β-benzylselenomethyl-19-norcholest-5(10)-en-3β-ol-^75 Se]
- % dose kg./g. in Ovaries [1]: 2.425 % dose kg./g.
- % dose kg./g. in Adrenals [1]: 5.286 % dose kg./g.
- % dose kg./g. in Blood [1]: 0.042 % dose kg./g.
- % dose kg./g. in Kidneys [1]: 0.083 % dose kg./g.
- % dose kg./g. in Liver [1]: 0.393 % dose kg./g.
- % dose kg./g. in Muscle [1]: 0.015 % dose kg./g.
- % dose kg./g. in Testes [1]: 0.042 % dose kg./g.
- Concentration Ratio; Adrenals: Kidneys [1]: 63.4
- Concentration Ratio; Adrenals: Liver [1]: 13.4
- Concentration Ratio; Adrenals: Muscle [1]: 355.3
- Concentration Ratio; Adrenals: Ovaries [1]: 2.6
- Concentration Ratio; Adrenals: Testes [1]: 101.4
- Concentration Ratio; Adrenals: Blood [1]: 126.3

SMILES: CC(C)CCC[C@@H](C)[C@H]1CC[C@H]2[C@@H]3C[C@@H](C[75Se](C)=O)C4=C(CC[C@H](O)C4)[C@H]3CC[C@]12C (stereo partly drawn) [Example 7, 6β-methylselenomethyl-19-norcholest-5(10)-en-3β-olselenoxide-^75 Se]
- % dose kg./g. in Ovaries [1]: 0.817 % dose kg./g.
- % dose kg./g. in Adrenals [1]: 4.284 % dose kg./g.
- % dose kg./g. in Blood [1]: 0.022 % dose kg./g.
- % dose kg./g. in Kidneys [1]: 0.087 % dose kg./g.
- % dose kg./g. in Liver [1]: 0.091 % dose kg./g.
- % dose kg./g. in Muscle [1]: 0.016 % dose kg./g.
- % dose kg./g. in Testes [1]: 0.046 % dose kg./g.
- Concentration Ratio; Adrenals: Kidneys [1]: 49.5
- Concentration Ratio; Adrenals: Liver [1]: 48.3
- Concentration Ratio; Adrenals: Muscle [1]: 274
- Concentration Ratio; Adrenals: Ovaries [1]: 5.1
- Concentration Ratio; Adrenals: Testes [1]: 95.2
- Concentration Ratio; Adrenals: Blood [1]: 202

SMILES: CC(C)CCC[C@@H](C)[C@H]1CC[C@H]2[C@@H]3C[C@@H](C[75Se]C4CCCCC4)C4=C(CC[C@H](O)C4)[C@H]3CC[C@]12C [Example 4, 6β-cyclohexylselenomethyl-19-norcholest-5(10)-en-3β-ol-^75 Se]
- % dose kg./g. in Ovaries [1]: 2.568 % dose kg./g.
- % dose kg./g. in Adrenals [1]: 3.609 % dose kg./g.
- % dose kg./g. in Blood [1]: 0.026 % dose kg./g.
- % dose kg./g. in Kidneys [1]: 0.038 % dose kg./g.
- % dose kg./g. in Liver [1]: 0.148 % dose kg./g.
- % dose kg./g. in Muscle [1]: 0.012 % dose kg./g.
- % dose kg./g. in Testes [1]: 0.034 % dose kg./g.
- Concentration Ratio; Adrenals: Kidneys [1]: 75.1
- Concentration Ratio; Adrenals: Liver [1]: 24.9
- Concentration Ratio; Adrenals: Muscle [1]: 303.1
- Concentration Ratio; Adrenals: Ovaries [1]: 1.6
- Concentration Ratio; Adrenals: Testes [1]: 89.8
- Concentration Ratio; Adrenals: Blood [1]: 137.4

SMILES: C[75Se]C[C@@H]1C[C@@H]2[C@H](CC[C@]3(C)[C@@H]([C@H](C)CCCC(C)C)CC[C@@H]23)C2=C1C[C@@H](OC(C)=O)CC2 [Example 6, 6β-methylselenomethyl-19-norcholest-5(10)-en-3β-ol-acetate-^75 Se]
- % dose kg./g. in Ovaries [1]: 3.232 % dose kg./g.
- % dose kg./g. in Adrenals [1]: 12.561 % dose kg./g.
- % dose kg./g. in Blood [1]: 0.025 % dose kg./g.
- % dose kg./g. in Kidneys [1]: 0.108 % dose kg./g.
- % dose kg./g. in Liver [1]: 0.074 % dose kg./g.
- % dose kg./g. in Muscle [1]: 0.022 % dose kg./g.
- % dose kg./g. in Testes [1]: 0.041 % dose kg./g.
- Concentration Ratio; Adrenals: Kidneys [1]: 116.0
- Concentration Ratio; Adrenals: Liver [1]: 161.1
- Concentration Ratio; Adrenals: Muscle [1]: 536.3
- Concentration Ratio; Adrenals: Ovaries [1]: 5.7
- Concentration Ratio; Adrenals: Testes [1]: 166.4
- Concentration Ratio; Adrenals: Blood [1]: 469.2

SMILES: C[75Se]C[C@@H]1C[C@@H]2[C@H](CC[C@]3(C)[C@@H]([C@H](C)CCCC(C)C)CC[C@@H]23)C2=C1C[C@@H](O)CC2 [Example 1, 6β-methylselenomethyl-19-norcholest-5(10)-en-3β-ol-^75 Se]
- quality of adrenal scans compared with 19-iodocholesterol-131I ([4]; comparable cases with adrenal cortex adenomas or hyperplasia, smaller dose): equally good adrenal scans
- visualization of adrenal glands and detection of adrenal cortex adenomas ([4]; humans): enabling their visualization and the detection of adrenal cortex adenomas
- time after injection at which scans could be taken ([4]; p.i.): 2 to 3 days
- dose giving equally good adrenal scans ([4]; per kg body weight, adrenal cortex adenomas or hyperplasia): 7 μCi/kg
- % dose kg/g, Adrenals [5, 7]: 7.240 % dose kg/g
- % dose kg/g, Bile [5, 7]: 0.485 % dose kg/g
- % dose kg/g, Blood [5, 7]: 0.066 % dose kg/g
- % dose kg/g, Kidneys [5, 7]: 0.175 % dose kg/g
- % dose kg/g, Liver [5, 7]: 0.143 % dose kg/g
- % dose kg/g, Lungs [5, 7]: 0.164 % dose kg/g
- % dose kg/g, Muscle [5, 7]: 0.042 % dose kg/g
- % dose kg/g, Ovaries [5, 7]: 1.571 % dose kg/g
- % dose kg/g, Spleen [5, 7]: 0.083 % dose kg/g
- % dose kg/g, adrenal cortex [5, 7]: 9.925 % dose kg/g
- % of dose, Adrenals [5, 7]: 0.622 % of dose
- % of dose, Blood [5, 7]: 5.989 % of dose
- % of dose, Kidneys [5, 7]: 0.712 % of dose
- % of dose, Liver [5, 7]: 3.894 % of dose
- % of dose, Lungs [5, 7]: 1.136 % of dose
- % of dose, Ovaries [5, 7]: 0.303 % of dose
- % of dose, Spleen [5, 7]: 0.528 % of dose
- % of dose, Total Faeces [5, 8]: 27.691 % of dose
- % of dose, Total Urine [5, 8]: 1.953 % of dose
- concentration in the adrenal cortex ([5]; dogs): concentrates in the adrenal cortex
- % dose kg./g. in Ovaries [1]: 2.356 % dose kg./g.
- % dose kg./g. in Adrenals [1]: 9.885 % dose kg./g.
- % dose kg./g. in Blood [1]: 0.024 % dose kg./g.
- % dose kg./g. in Kidneys [1]: 0.116 % dose kg./g.
- % dose kg./g. in Liver [1]: 0.054 % dose kg./g.
- % dose kg./g. in Muscle [1]: 0.023 % dose kg./g.
- % dose kg./g. in Testes [1]: 0.044 % dose kg./g.
- Concentration Ratio; Adrenals: Kidneys [1]: 91.9
- Concentration Ratio; Adrenals: Liver [1]: 163.9
- Concentration Ratio; Adrenals: Muscle [1]: 436.7
- Concentration Ratio; Adrenals: Ovaries [1]: 4.5
- Concentration Ratio; Adrenals: Testes [1]: 211.9
- Concentration Ratio; Adrenals: Blood [1]: 433.1
- 75Se uptake per gram of tissue in the adrenal adenoma ([6]; compared with 19-iodocholesterol-131I in five other adrenal cortex adenomas): higher than that of 19-iodocholesterol-^131 I
- concentration in the adrenal glands ([6]; humans): concentrate in the adrenal glands of humans
- maximum uptake in the left adrenal region ([6]; one patient with Cushing Syndrome, 500μCi intravenous, two weeks of scans): 17 μCi
- 75Se uptake in each of both adrenal regions ([6]; other patient with Cushing Syndrome, 500μCi intravenous): 3 μCi
- 75Se contained in removed adrenal cortex adenoma ([6]; same patient, adenoma weight 66 g, 500μCi intravenous): 15 μCi
